Measurements taken from ChEMBL document CHEMBL4765295, “Synthesis, pharmacological profile and 2D-QSAR studies of curcumin-amino acid conjugates as potential drug candidates” (Eur J Med Chem, 2020).
In brackets after ≈: the same amount, converted by molar mass. Several values for one entry are separate records, joined by “and”; a condition that tells them apart may be missing. Equal values may be shown once.

What was measured:
[1] = system: Rattus norvegicus; assay: Anti-inflammatory activity in Wistar rat assessed as inhibition of carrageenan-induced paw edema at 10 mg/kg, ip pretreated for 1 hr followed by carrageenan challenge and measured after 4 hr relative to indomethacin; format: functional; conditions: time 5 hrs
[2] = system: Pseudomonas aeruginosa; assay: Antibacterial activity against Pseudomonas aeruginosa ATCC 27853 incubated for 18 hrs by agar dilution assay; format: functional
[3] = system: Rattus norvegicus; assay: Antiinflammatory activity in Wistar rat model of carrageenan-induced paw edema assessed as reduction in thickness of paw edema at 10 mg/kg, ip pretreated for 1 hr followed by carrageenan challenge and measured after 1 hr (reference value: 2.41 +/-0.05 mm); format: functional; conditions: time 1 hr after carrageenan
[4] = system: Rattus norvegicus; assay: Anti-inflammatory activity in Wistar rat assessed as inhibition of carrageenan-induced paw edema at 10 mg/kg, ip pretreated for 1 hr followed by carrageenan challenge and measured after 4 hr relative to control (reference value: 0.00 +/-0.4 %); format: functional; conditions: time 5 hrs
[5] = system: Rattus norvegicus; assay: Anti-inflammatory activity in Wistar rat assessed as inhibition of carrageenan-induced paw edema at 10 mg/kg, ip pretreated for 1 hr followed by carrageenan challenge and measured after 1 hr relative to control (reference value: 0.00 +/-0.02 %); format: functional; conditions: time 2 hrs
[6] = system: Rattus norvegicus; assay: Anti-inflammatory activity in Wistar rat assessed as inhibition of carrageenan-induced paw edema at 10 mg/kg, ip pretreated for 1 hr followed by carrageenan challenge and measured after 3 hr relative to control (reference value: 0.00 +/-0.1 %); format: functional; conditions: time 4 hrs
[7] = system: Rattus norvegicus; assay: Anti-inflammatory activity in Wistar rat assessed as inhibition of carrageenan-induced paw edema at 10 mg/kg, ip pretreated for 1 hr followed by carrageenan challenge and measured after 2 hr relative to control (reference value: 0.00 +/-0.03 %); format: functional; conditions: time 3 hrs
[8] = system: Salmonella typhimurium; assay: Antibacterial activity against Salmonella typhimurium ATCC 19430 incubated for 18 hrs by agar dilution assay; format: functional, Salmonella enterica subsp. enterica serovar Typhimurium; conditions: Salmonella enterica
[9] = system: Splenocyte; assay: Immunomodulatory activity in Swiss albino mouse splenocytes assessed as cell viability at 10 uM by measuring stimulation index incubated for 72 hrs in presence of mitogenic stimulus phytohaemagglutinin by MTT assay (reference value: 1.00 +/- 0.24); format: functional
[10] = system: Rattus norvegicus; assay: Anti-inflammatory activity in Wistar rat assessed as inhibition of carrageenan-induced paw edema at 10 mg/kg, ip pretreated for 1 hr followed by carrageenan challenge and measured after 24 hr relative to control (reference value: 0.00 +/-0.3 %); format: functional; conditions: time 25 hrs
[11] = system: Streptococcus pyogenes; assay: Antibacterial activity against Streptococcus pyogenes ATCC 19615 incubated for 18 hrs by agar dilution method; format: functional
[12] = system: Rattus norvegicus; assay: Antiinflammatory activity in Wistar rat model of carrageenan-induced paw edema assessed as reduction in thickness of paw edema at 10 mg/kg, ip pretreated for 1 hr followed by carrageenan challenge and measured after 4 hrs (reference value: 1.40 +/-0.10 mm); format: functional; conditions: time 5 hrs
[13] = system: Splenocyte; assay: Immunomodulatory activity in Swiss albino mouse splenocytes assessed as cell viability at 10 uM by measuring inhibition of stimulation index incubated for 72 hrs in presence of mitogenic stimulus phytohaemagglutinin by MTT assay relative to indomethacin; format: functional; conditions: read-out: Activity
[14] = system: Rattus norvegicus; assay: Antiinflammatory activity in Wistar rat model of carrageenan-induced paw edema assessed as reduction in thickness of paw edema at 10 mg/kg, ip pretreated for 1 hr followed by carrageenan challenge and measured after 24 hrs (reference value: 0.83 +/-0.08 mm); format: functional; conditions: time 25 hrs
[15] = system: Rattus norvegicus; assay: Antiinflammatory activity in Wistar rat model of carrageenan-induced paw edema assessed as reduction in thickness of paw edema at 10 mg/kg, ip pretreated for 1 hr followed by carrageenan challenge and measured after 2 hrs (reference value: 2.06 +/-0.09 mm); format: functional; conditions: time 3 hrs
[16] = system: Rattus norvegicus; assay: Antiinflammatory activity in Wistar rat model of carrageenan-induced paw edema assessed as reduction in thickness of paw edema at 10 mg/kg, ip pretreated for 1 hr followed by carrageenan challenge and measured after 3 hrs (reference value: 1.79 +/-0.07 mm); format: functional; conditions: time 4 hrs
[17] = system: Candida albicans; assay: Antifungal activity against Candida albicans incubated for 18 to 24 hrs by CLSI method; format: functional; conditions: time 18-24 hrs
[18] = system: Staphylococcus aureus; assay: Antibacterial activity against Staphylococcus aureus ATCC 25923 incubated for 18 hrs by agar dilution method; format: functional
[19] = system: Peritoneal macrophage; assay: Antiinflammatory activity in […] mouse Peritoneal macrophages assessed as inhibition of LPS-induced NO production at 10 uM preincubated for 1 hr followed by LPS stimulation measured after 24 hrs by Griess method relative to control (reference value: 0.0 %); format: functional; parameters: scale not given: the % may be the effect or the level left; conditions: time 25 hrs
[20] = system: Peritoneal macrophage; assay: Antiinflammatory activity in […] mouse Peritoneal macrophages assessed as reduction in LPS-induced NO production by measuring reduction in stimulation index at 10 uM preincubated for 1 hr followed by LPS stimulation measured after 24 hrs by Griess method (reference value: 27.31 +/- 2.56 uM); format: functional; conditions: time 25 hrs

SMILES	inhibition in vivo at 10 mg/kg [1]	MIC [2]	Activity [3]	inhibition in vivo at 10 mg/kg [4]	inhibition in vivo at 10 mg/kg [5]	inhibition in vivo at 10 mg/kg [6]	inhibition in vivo at 10 mg/kg [7]	MIC [8]	Activity_index [9]	inhibition in vivo at 10 mg/kg [10]	MIC [11]	Activity [12]	viability at 10 µM [13]	Activity [14]	Activity [15]	Activity [16]	MIC [17]	MIC [18]	Activity [19]	Activity [20]
COc1cc(/C=C/C(=O)/C=C(O)/C=C/c2ccc(OC(=O)[C@H](CCC(N)=O)NC(=O)OCc3ccccc3)c(OC)c2)ccc1OC(=O)[C@H](CCC(N)=O)NC(=O)OCc1ccccc1	51%	1 µg/mL and 1.12 µM	1.18 mm	44%	51%	45%	47%	0.5 µg/mL and 0.56 µM	2.37	4%	0.125 µg/mL and 0.14 µM	0.78 mm	51.1%	0.8 mm	1.09 mm	0.99 mm	0.5 µg/mL and 0.56 µM	0.5 µg/mL and 0.56 µM	–	–
COc1cc(/C=C/C(=O)/C=C(O)/C=C/c2ccc(OC(=O)[C@H](C)NC(=O)OCc3ccccc3)c(OC)c2)ccc1OC(=O)[C@H](C)NC(=O)OCc1ccccc1	14%	2 µg/mL and 2.57 µM	1.05 mm	12%	56%	22%	23%	0.5 µg/mL and 0.642 µM	2.7	0%	0.125 µg/mL and 0.161 µM	1.23 mm	44.9%	0.83 mm	1.59 mm	1.4 mm	2 µg/mL and 2.57 µM	0.25 µg/mL and 0.321 µM	8.86%	24.89 µM
COc1cc(/C=C/C(=O)/C=C(O)/C=C/c2ccc(OC(=O)[C@H](Cc3ccccc3)NC(=O)OCc3ccccc3)c(OC)c2)ccc1OC(=O)[C@H](Cc1ccccc1)NC(=O)OCc1ccccc1	6%	0.25 µg/mL and 0.269 µM	1 mm	5%	59%	9%	24%	0.125 µg/mL and 0.134 µM	2.91	1%	0.125 µg/mL and 0.134 µM	1.38 mm	41.5%	0.82 mm	1.56 mm	1.63 mm	2 µg/mL and 2.15 µM	0.125 µg/mL and 0.134 µM	3.6%	26.33 µM
COc1cc(/C=C/C(=O)/C=C(O)/C=C/c2ccc(OC(=O)CNC(=O)OCc3ccccc3)c(OC)c2)ccc1OC(=O)CNC(=O)OCc1ccccc1	39%	1 µg/mL and 1.33 µM	0.87 mm	34%	64%	37%	32%	0.5 µg/mL and 0.666 µM	2.64	0%	0.125 µg/mL and 0.166 µM	0.92 mm	45.8%	0.83 mm	1.41 mm	1.13 mm	0.5 µg/mL and 0.666 µM	0.125 µg/mL and 0.166 µM	10.11%	24.55 µM
COc1cc(/C=C/C(=O)/C=C(O)/C=C/c2ccc(OC(=O)[C@H](CC(C)C)NC(=O)OCc3ccccc3)c(OC)c2)ccc1OC(=O)[C@H](CC(C)C)NC(=O)OCc1ccccc1	13%	0.125 µg/mL and 0.145 µM	1.59 mm	11%	34%	10%	10%	0.25 µg/mL and 0.29 µM	2.83	1%	0.125 µg/mL and 0.145 µM	1.25 mm	42.8%	0.82 mm	1.85 mm	1.61 mm	0.5 µg/mL and 0.579 µM	0.125 µg/mL and 0.145 µM	4.57%	26.06 µM
COc1cc(/C=C/C(=O)/C=C(O)/C=C/c2ccc(OC(=O)[C@H](Cc3ccccc3)NC(=O)OC(C)(C)C)c(OC)c2)ccc1OC(=O)[C@H](Cc1ccccc1)NC(=O)OC(C)(C)C	68%	1 µg/mL and 1.16 µM	1.47 mm	59%	39%	53%	44%	0.25 µg/mL and 0.29 µM	2.56	51%	0.125 µg/mL and 0.145 µM	0.58 mm	47.2%	0.41 mm	1.16 mm	0.85 mm	1 µg/mL and 1.16 µM	0.25 µg/mL and 0.29 µM	–	–
COc1cc(/C=C/C(=O)/C=C(O)/C=C/c2ccc(OC(=O)[C@@H](NC(=O)OCc3ccccc3)C(C)C)c(OC)c2)ccc1OC(=O)[C@@H](NC(=O)OCc1ccccc1)C(C)C	14%	0.25 µg/mL and 0.299 µM	1.17 mm	12%	51%	19%	20%	0.125 µg/mL and 0.15 µM	2.87	2%	0.5 µg/mL and 0.599 µM	1.23 mm	42.1%	0.81 mm	1.65 mm	1.45 mm	1 µg/mL and 1.2 µM	0.125 µg/mL and 0.15 µM	5.68%	25.76 µM
C[C@@H]1[C@H](O)[C@@H](C)/C=C/C=C/C=C/C=C/C=C/C=C/C=C/[C@H](O[C@@H]2O[C@H](C)[C@@H](O)[C@H](N)[C@@H]2O)C[C@@H]2O[C@](O)(C[C@@H](O)C[C@@H](O)[C@H](O)CC[C@@H](O)C[C@@H](O)CC(=O)O[C@H]1C)C[C@H](O)[C@H]2C(=O)O [AMPHOTERICIN B]	–	–	–	–	–	–	–	–	–	–	–	–	–	–	–	–	0.39 µg/mL and 0.422 µM	–	–	–
O=C(O)c1cn(C2CC2)c2cc(N3CCNCC3)c(F)cc2c1=O [CIPROFLOXACIN]	–	4.8 µg/mL (≈ 14.5 µM)	–	–	–	–	–	2.4 µg/mL (≈ 7.24 µM)	–	–	–	–	–	–	–	–	–	–	–	–
CCn1cc(C(=O)O)c(=O)c2cc(F)c(N3CCNCC3)cc21 [NORFLOXACIN]	–	4.8 µg/mL and 15000 µM	–	–	–	–	–	2.4 µg/mL (≈ 7.52 µM)	–	–	–	–	–	–	–	–	–	–	–	–
